Like-named read-outs stand apart in the source and are kept apart here.
Tests used:
[1] = Fluorescence lifetimes by TCSPC; assay type: physicochemical; details: for t (fluorescence lifetime), parent fluorophore: 20 mM buffer HEPES, pH 7.4; for t (fluorescence lifetime), P12-Complex: TCSPC
Method: (§1) Absorption and fluorescence spectra were measured with a UVIKON 943 Double Beam UV/Vis absorption spectrophotometer and with a Perkin Elmer LS50B fluorescence spectrophotometer, respectively. Lifetime measurements were made by TCSPC in a Horiba Jobin Yvon IBH Fluorescence Lifetime Spectrometer System. The excitation source at 495 nm was a NanoLED N-01 Aqua and the detection module was TBX-04-A. Irradiation was carried out using a Superlite SUV-DC-P system incorporating a 200W DC Super-Pressure short arc lamp coupled to a light guide for high UV transmission and an electronic timer for exposure time control (Lumatec GmbH,
The fluorescence lifetimes of the complexes obtained as described in section 3.1, were determined by TCSPC. The corresponding values for each parent fluorescein were also determined in 20 mM buffer HEPES, pH 7.4 for comparison.

[2] = Photostability (photobleaching under mercury arc lamp irradiation); assay type: physicochemical; details: complexes with P12
Method: FIG. 2 illustrates a graph illustrations photobleaching of F2F1AsH-P12 (◯), F4F1AsH-P12 (□) and F1AsH-P12 (+). Full lines correspond to exponential fits. Complexes of the three dyes (10 μM) were irradiated with a mercury arc lamp through a 490-560 nm filter with an irradiance of 70 mW/cm^2;
as §1
Samples containing 10 μM of the biarsenical compounds and 10 μM of the model peptide P12, were incubated at room temperature for 1 h. Each solution of the F1AsH-peptide complex was irradiated for 120 min as previously described (see General Procedures).
Values of κbl were calculated from the monoexponential fitting of the experimental photobleaching decay, according to the model described in (Eq. 1) for the intermediate irradieation regime.^13
where τ(s) is the lifetime, Ψ is the irradiance (photons cm^−2 s^−1) and σ is the molecular absorption cross-section (cm^2 molecules^−1). Inasmuch as a broad excitation bandwidth was used, σ was computed as a mean value over the spectral distribution function of photon flux and corrected by the spectral integral with the corresponding absorption spectra, including the irradiation source and filter.

[3] = tested on: model target peptide P12 (FLNCCPGCCMEP); test: In vitro labeling of model peptide P12; absorption and emission spectra of biarsenical-P12 complexes; assay type: physicochemical
Method: as §1
To a solution of the biarsenical compound in buffer HEPES 20 mM, 1 mM 2-ME, pH 7.4, at a concentration of 0.1 μM and with a slight excess of EDT, was added the model target peptide P12 ([…]) to a final concentration of 1 μM from a stock solution in the same buffer and treated with 10 mM TCEP to reduce any disulfide bond. Emission spectra were taken after two hours of formation of the complex. FIG. 4 depicts the emision spectra of the F2F1AsH, F4F1AsH and F1AsH at equal concentration, with excitation at 490 nm. A 4-fold enhanced fluorescence emission of F2F1AsH compared to F1AsH can be observed.

[4] = Critical Förster distances of donor-acceptor combinations; assay type: physicochemical
From the text: F2F1AsH and F4F1AsH have a very favorable spectral overlap, leading to a large J (the overlap integral) and thus an R0 of 5.4 nm, greater than any of the values obtained with the other combinations of donors and acceptors based on biarsenical dyes. For example the F1ASH-ReAsH pair has an R0 of 3.9 nm. Thus, the new F2F1AsH-F4F1AsH probes constitute a new donor acceptor pair extending the dynamic range for heteroFRET in studies of living cells by 40%. They also provide new possibilities in combination with other FRET donors and acceptors within and outside the biarsenical family.

[5] = approximate value from ref 8; cited from earlier work

Row | Structure (SMILES) | t (fluorescence lifetime), parent fluorophore [1] [ns] | t (fluorescence lifetime), P12-Complex [1] [ns] | wavelength of fluorescence maximum [2] [nm] | 10^13 · J (overlap integral) ([4]; acceptor F4FlAsH) | Ro ([4]; acceptor F4FlAsH) [nm] | 10^14 · J (overlap integral) ([4]; acceptor ReAsH) | Ro ([4]; acceptor ReAsH) [nm] | further results
1 | O=C1OC2(c3cc(F)c(O)cc3Oc3cc(O)c(F)cc32)c2ccccc21 [2′,7′-difluorofluorescein] | 4.02 | – | – | – | – | – | – | –
2 | O=C1OC2(c3ccc(O)cc3Oc3cc(O)ccc32)c2c(F)c(F)c(F)c(F)c21 [3,4,5,6-tetrafluorofluorescein] | 4.13 | – | – | – | – | – | – | –
3 | O=C1OC2(c3ccccc31)c1cc(F)c(O)c([As]3SCCS3)c1Oc1c2cc(F)c(O)c1[As]1SCCS1 [F2FlAsH, 4′,5′-Bis(1,2,3-dithioarsolan-2-yl)-2′,7′-difluorofluorescein] | – | 4.78 | 516 | 1.58 | 5.4 | 3.44 | 4.1 | shift of absorption maximum to the blue compared to FlAsH [3]: 11 nm; emission quantum yield relative to FlAsH complex ([3]; P12 complex): 2 ×; extinction coefficient at 490 nm relative to FlAsH complex ([3]; P12 complex): 2 ×; fluorescence intensity relative to complex with parent FlAsH ([3]; P12 complex, λexc 490 nm, λem 525 nm): 4 fold; λem ([3]; biarsenical-P12 complex): 522 nm; Stokes shift ([3]; complex with P12): 22 nm; Stokes shift, greater than that of the FlAsH complex by ([3]; complex with P12): 7 nm; 10^13 · J (overlap integral) ([4]; acceptor F2FlAsH): 1.37; Ro ([4]; acceptor F2FlAsH): 5.2 nm; 10^14 · J (overlap integral) ([4]; acceptor FlAsH): 6.41; Ro ([4]; acceptor FlAsH): 4.1 nm
4 | O=C1OC2(c3ccc(O)c([As]4SCCS4)c3Oc3c2ccc(O)c3[As]2SCCS2)c2c(F)c(F)c(F)c(F)c21 [F4FlAsH, 4′,5′-Bis(1,2,3-dithioarsolan-2-yl)-3,4,5,6-tetrafluorofluorescein] | – | 5.18 | 538 | 1.17 | 4.5 | 6.45 | 4.1 | displacement of absorption maximum to the red compared to FlAsH [3]: 17 mn; Φd, emission quantum yield of donor [4]: 0.4
5 | O=C1OC2(c3ccccc31)c1ccc(O)c([As]3SCCS3)c1Oc1c2ccc(O)c1[As]1SCCS1 [FlAsH, 4′,5′-Bis(1,2,3-dithioarsolan-2-yl)-fluorescein, reference compound] | – | 4.88 | 519.5 | 1.48 | 4.7 | 5.03 | 3.9 | Φd, emission quantum yield of donor [5]: ~0.4; τ (fluorescence lifetime) ([1]; biarsenical-P12 complex): 4.88 ns

Reference: patent publication US20090098596A1, “PHOTOSTABLE FRET-COMPETENT BIARSENICAL-TETRACYSTEINE PROBES BASED ON FLUORINATED FLUORESCEINS” (priority 2006, published 2009)
